Assay results from US20040176431A1, “Antiproliferative 2-(sulfo-phenyl)-aminothiazole derivatives and pharmaceutical compositions, and methods for their use” (Pfizer, Inc., priority 2003, published 2004).

Molecular target: T1, CDK4/cyclin D3 (Homo sapiens, UniProt P11802)
T1 construct: made in house; host or cells: insect cells (baculovirus co-infection)
Test: Inhibition of CDK4/Cyclin D retinoblastoma kinase activity
Format: biochemical
Conditions: for inhibition at 0.1 µM: test compound at 0.1 μM, read-out: % Inhib CDK4/D @ 0.1 μM; for inhibition at 1 µM: test compound at 1 μM (head line shifted: 'mM' printed beside 'Structure'), read-out: % Inhib CDK4/D @ 1 μM; for inhibition at 0.03 µM: test compound at 0.03 (unit cell empty, head line shifted; μM), read-out: % Inhib CDK4/D @ 0.03
Description: Cyclin-dependent kinase activity was measured by quantifying the enzyme-catalyzed, time-dependent incorporation of radioactive phosphate from [^32P]ATP or [^33P]ATP into a protein substrate. Unless noted otherwise, assays were performed in 96-well plates in a total volume of 50 μL, in the presence of 10 mM HEPES (N-[2-hydroxyethyl]piperazine-N′-[2-ethanesulfonic acid]) (pH 7.4), 10 mM MgCl2, 25 μM adenosine triphosphate (ATP), 1 mg/mL ovalbumin, 5 μg/mL leupeptin, 1 mM dithiothreitol, 10 mM β-glycerophosphate, 0.1 mM sodium vanadate, 1 mM sodium fluoride, 2.5 mM ethylene glycol-bis(β-aminoethyl ether)-N,N,N′N′-tetraacetic acid (EGTA), 2% (v/v) dimethylsulfoxide, and 0.03-0.4 μCi [^32/33P]ATP per reaction. Reactions were initiated with enzyme, incubated at 30° C., and terminated after 20 minutes by the addition of ethylenediaminetetraacetic acid (EDTA) to 250 mM. The phosphorylated substrate was then captured on a nitrocellulose or phosphocellulose membrane using a 96-well filtration manifold, and unincorporated radioactivity was removed by repeated washing with 0.85% phosphoric acid. Radioactivity was quantified by exposing the dried membranes to a phosphorimager.
Inhibition was measured relative to control wells that contained all reaction components including 2% (v/v) DMSO but no compound, after subtraction of background radioactivity measured in the absence of enzyme. Apparent Ki values of discrete compounds were measured by assaying enzyme activity in the presence of different inhibitor compound concentrations and subtracting the background radioactivity measured in the absence of enzyme. The kinetic parameters (kcat, Km for ATP) were measured for each enzyme under the usual assay conditions by determining the dependence of initial rates on ATP concentration. Inhibition data were fit to an equation for competitive inhibition using Kaleidagraph (Synergy Software), or were fit to an equation for competitive tight-binding inhibition using the software KineTic (BioKin, Ltd.).
A complex of human CDK4 and genetically truncated (1-264) cyclin D3 was purified using traditional biochemical chromatographic techniques from insect cells that had been co-infected with the corresponding baculovirus expression vectors (see e.g., Meijer and Kim, “Chemical Inhibitors of Cyclin-Dependent Kinases,” Methods in Enzymol., 283, 113-128 (1997)). The enzyme complex (5 nM) was assayed with 0.3-0.5 μg of purified recombinant retinoblastoma protein fragment (Rb) as a substrate. The engineered Rb fragment (residues 386-928 of the native retinoblastoma protein; 62.3 kDa) contains the majority of the phosphorylation sites found in the native 106-kDa protein, as well as a tag of six histidine residues for ease of purification. Phosphorylated Rb substrate was captured by microfiltration on a nitrocellulose membrane and quantified using a phosphorimager as described above. For measurement of tight-binding inhibitors, the assay duration was extended to 60 minutes, during which the time-dependence of product formation was linear and initial rate conditions were met.

T1 sequence (P11802 whole entry): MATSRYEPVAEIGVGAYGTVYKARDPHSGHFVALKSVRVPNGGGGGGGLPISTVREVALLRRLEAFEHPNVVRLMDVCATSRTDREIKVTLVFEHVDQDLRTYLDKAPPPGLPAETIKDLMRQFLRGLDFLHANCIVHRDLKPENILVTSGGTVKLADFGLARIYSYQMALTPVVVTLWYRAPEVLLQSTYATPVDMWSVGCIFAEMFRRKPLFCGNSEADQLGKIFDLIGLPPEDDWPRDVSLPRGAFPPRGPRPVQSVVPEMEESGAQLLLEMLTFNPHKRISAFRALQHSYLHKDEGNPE
T1 sequence (P30281 1-264 partner limits assumed): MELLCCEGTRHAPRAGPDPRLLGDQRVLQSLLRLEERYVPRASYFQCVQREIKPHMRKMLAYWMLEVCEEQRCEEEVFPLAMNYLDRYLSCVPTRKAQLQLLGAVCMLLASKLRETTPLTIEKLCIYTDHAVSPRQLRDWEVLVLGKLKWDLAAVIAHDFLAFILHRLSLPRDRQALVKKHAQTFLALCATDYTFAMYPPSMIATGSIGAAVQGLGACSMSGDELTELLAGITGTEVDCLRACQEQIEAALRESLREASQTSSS

| inhibition at 0.1 µM | inhibition at 1 µM | inhibition at 0.03 µM | SMILES |
| --- | --- | --- | --- |
| 23% | 77.1% | 18% | COC(=O)CSc1cccc(Nc2nc(N)c(C(=O)c3c(Cl)cccc3Cl)s2)c1 [DD(66)] |
| 14% | 49.1% | 4.3% | CN1CCCC(CSc2cccc(Nc3nc(N)c(C(=O)c4c(Cl)cccc4Cl)s3)c2)C1 (stereo not drawn) [DD(67)] |
| 52% | 77.4% | 25% | NC(=O)CCSc1cccc(Nc2nc(N)c(C(=O)c3c(Cl)cccc3Cl)s2)c1 [DD(68)] |
| 41% | 78.4% | 16% | Nc1nc(Nc2cccc(SCCO)c2)sc1C(=O)c1c(Cl)cccc1Cl [DD(69)] |
| 16% | 5.3% | 93% | CC(C)CCCSc1cccc(Nc2nc(N)c(C(=O)c3c(Cl)cccc3Cl)s2)c1 [DD(70)] |
| 6.9% | 36% | 77% | CC(C)CCOC(=O)CSc1cccc(Nc2nc(N)c(C(=O)c3c(Cl)cccc3Cl)s2)c1 [DD(71)] |
| 25% | 69% | -1.1% | CN(C)CCSc1cccc(Nc2nc(N)c(C(=O)c3c(Cl)cccc3Cl)s2)c1 [DD(72)] |
| 31% | 73.7% | 11% | CCOCCSc1cccc(Nc2nc(N)c(C(=O)c3c(Cl)cccc3Cl)s2)c1 [DD(73)] |
| 59% | 85.7% | 28% | Nc1nc(Nc2cccc(SCC(O)CO)c2)sc1C(=O)c1c(Cl)cccc1Cl (stereo not drawn) [DD(74)] |
| 29% | 66.5% | 18% | Nc1nc(Nc2cccc(SCc3ccncc3)c2)sc1C(=O)c1c(Cl)cccc1Cl [DD(75)] |
| 9.6% | 29.5% | 19% | CCC(CC)CSc1cccc(Nc2nc(N)c(C(=O)c3c(Cl)cccc3Cl)s2)c1 [DD(76)] |
| 30% | 71.9% | 23% | CC(=O)OCCSc1cccc(Nc2nc(N)c(C(=O)c3c(Cl)cccc3Cl)s2)c1 [DD(77)] |
| 22% | 36.2% | 13% | CC(C)OC(=O)CCSc1cccc(Nc2nc(N)c(C(=O)c3c(Cl)cccc3Cl)s2)c1 [DD(78)] |
| 4.3% | 62.3% | 9.1% | Nc1nc(Nc2cccc(SCCN3CCOCC3)c2)sc1C(=O)c1c(Cl)cccc1Cl [DD(79)] |
| 1.5% | 56% | 1.2% | CC(C)(CO)CSc1cccc(Nc2nc(N)c(C(=O)c3c(Cl)cccc3Cl)s2)c1 [DD(80)] |
| 21% | 57.4% | -21% | CCN(CC)C(=O)C[S+]([O-])c1ccc(Nc2nc(N)c(C(=O)c3c(Cl)cccc3Cl)s2)cc1 (stereo not drawn) [DD(81)] |
| -4% | 72.3% | -3.3% | Cc1noc(C)c1C[S+]([O-])c1ccc(Nc2nc(N)c(C(=O)c3c(Cl)cccc3Cl)s2)cc1 (stereo not drawn) [DD(82)] |
| 31% | 43% | -17% | CC(CN(C)C)C[S+]([O-])c1ccc(Nc2nc(N)c(C(=O)c3c(Cl)cccc3Cl)s2)cc1 (stereo not drawn) [DD(83)] |
| 26% | 45.7% | -5.6% | COC(=O)/C=C/C[S+]([O-])c1ccc(Nc2nc(N)c(C(=O)c3c(Cl)cccc3Cl)s2)cc1 (stereo not drawn) [DD(84)] |
| 49% | 76.8% | 3.7% | Nc1nc(Nc2ccc([S+]([O-])CCCO)cc2)sc1C(=O)c1c(Cl)cccc1Cl (stereo not drawn) [DD(85)] |
| 36% | 62.5% | -9.8% | C=CCC[S+]([O-])c1ccc(Nc2nc(N)c(C(=O)c3c(Cl)cccc3Cl)s2)cc1 (stereo not drawn) [DD(86)] |

| inhibition at 0.1 µM | inhibition at 1 µM | inhibition at 0.03 µM | SMILES |
| --- | --- | --- | --- |
| 29% | 68.2% | -16% | Nc1nc(Nc2ccc([S+]([O-])CCN3CCCC3)cc2)sc1C(=O)c1c(Cl)cccc1Cl (stereo not drawn) [DD(87)] |
| 56% | 81.5% | 4.1% | Nc1nc(Nc2ccc([S+]([O-])Cc3ncon3)cc2)sc1C(=O)c1c(Cl)cccc1Cl (stereo not drawn) [DD(88)] |
| 35% | 61.7% | -29% | Nc1nc(Nc2ccc([S+]([O-])CC3CNC(=O)O3)cc2)sc1C(=O)c1c(Cl)cccc1Cl (stereo not drawn) [DD(89)] |
| 44% | 70.2% | -4.9% | CN(C)CCC[S+]([O-])c1ccc(Nc2nc(N)c(C(=O)c3c(Cl)cccc3Cl)s2)cc1 (stereo not drawn) [DD(90)] |
| 24% | 68.2% | -6.3% | Nc1nc(Nc2ccc([S+]([O-])CCN3CCCCC3)cc2)sc1C(=O)c1c(Cl)cccc1Cl (stereo not drawn) [DD(91)] |
| 26% | 65.8% | -4.6% | Nc1nc(Nc2ccc([S+]([O-])CC3CO3)cc2)sc1C(=O)c1c(Cl)cccc1Cl (stereo not drawn) [DD(92)] |
| 35% | 43% | -4.4% | CC(C)CC[S+]([O-])c1ccc(Nc2nc(N)c(C(=O)c3c(Cl)cccc3Cl)s2)cc1 (stereo not drawn) [DD(93)] |
| 51% | 70.9% | 17% | COCC[S+]([O-])c1ccc(Nc2nc(N)c(C(=O)c3c(Cl)cccc3Cl)s2)cc1 (stereo not drawn) [DD(94)] |
| 55% | 80.7% | 5.3% | Nc1nc(Nc2ccc([S+]([O-])CC(=O)Nc3ccccc3)cc2)sc1C(=O)c1c(Cl)cccc1Cl (stereo not drawn) [DD(95)] |
| 28% | 55.4% | -8.1% | Nc1nc(Nc2ccc([S+]([O-])CC3CC3)cc2)sc1C(=O)c1c(Cl)cccc1Cl (stereo not drawn) [DD(96)] |
| 36% | 66.8% | -3.5% | COc1cccc(C[S+]([O-])c2ccc(Nc3nc(N)c(C(=O)c4c(Cl)cccc4Cl)s3)cc2)c1 (stereo not drawn) [DD(97)] |
| 21% | 45.4% | -12% | Nc1nc(Nc2ccc([S+]([O-])CC3CCCO3)cc2)sc1C(=O)c1c(Cl)cccc1Cl (stereo not drawn) [DD(98)] |
| 34% | 77.1% | -5.6% | CN1CCCC1CC[S+]([O-])c1ccc(Nc2nc(N)c(C(=O)c3c(Cl)cccc3Cl)s2)cc1 (stereo not drawn) [DD(99)] |
| 33% | 63.7% | 7.1% | CC1(C[S+]([O-])c2ccc(Nc3nc(N)c(C(=O)c4c(Cl)cccc4Cl)s3)cc2)CO1 (stereo not drawn) [DD(100)] |
| 78% | 80.4% | 38% | NC(=O)C[S+]([O-])c1ccc(Nc2nc(N)c(C(=O)c3c(Cl)cccc3Cl)s2)cc1 (stereo not drawn) [DD(101)] |
| 42% | 46.2% | 2.1% | CCOC(=O)CC[S+]([O-])c1ccc(Nc2nc(N)c(C(=O)c3c(Cl)cccc3Cl)s2)cc1 (stereo not drawn) [DD(102)] |
| 38% | 47.5% | -2.9% | CC(C)OC(=O)C[S+]([O-])c1ccc(Nc2nc(N)c(C(=O)c3c(Cl)cccc3Cl)s2)cc1 (stereo not drawn) [DD(103)] |
| 14% | 36.4% | -38% | CC(C)=CC[S+]([O-])c1ccc(Nc2nc(N)c(C(=O)c3c(Cl)cccc3Cl)s2)cc1 (stereo not drawn) [DD(104)] |
| 39% | 61.9% | 0.9% | CCC[S+]([O-])c1ccc(Nc2nc(N)c(C(=O)c3c(Cl)cccc3Cl)s2)cc1 (stereo not drawn) [DD(105)] |
| 45% | 66.8% | 1.7% | COC(=O)C[S+]([O-])c1ccc(Nc2nc(N)c(C(=O)c3c(Cl)cccc3Cl)s2)cc1 (stereo not drawn) [DD(106)] |
| 28% | 47.3% | -11% | CN1CCCC(C[S+]([O-])c2ccc(Nc3nc(N)c(C(=O)c4c(Cl)cccc4Cl)s3)cc2)C1 (stereo not drawn) [DD(107)] |
